# According to ChEMBL document CHEMBL1201862, “PubChem BioAssay data set” (2004):
#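 A five-concentration, 48-hour dose response in 96-well plates underlies each endpoint, interpolated linearly between surrounding concentrations. The concentration for 50% growth inhibition is given as GI50.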 Activity calls are given as the source filed them. Rule as the data show it: active = GI50 up to about 1.1 µM and inactive = higher.
# Columns and labels:
# Test in all cases: growth of human tumour cells (NCI), 48 h
# [1] = system: HOP-62
# [2] = system: SN12C
# [3] = system: IGROV-1
# [4] = system: SW-620
# [5] = system: BT-549
# [6] = system: SK-MEL-28
# [7] = system: OVCAR-8
# [8] = system: SF-268
# [9] = system: Malme-3M
# [10] = system: HCC 2998
# [11] = system: A498
# [12] = system: KM12
# [13] = system: PC-3
# [14] = system: HCT-15
# [15] = system: RXF 393
# [16] = system: SF-539
# [17] = system: RPMI-8226
# [18] = system: NCI-H460
# [19] = system: HL-60
# [20] = system: SK-OV-3
# [21] = system: MOLT-4
# [22] = system: UACC-62
# [23] = system: SK-MEL-2
# [24] = system: Hs-578T
# [25] = system: CCRF-CEM
# [26] = system: NCI/ADR-RES
# [27] = system: OVCAR-5
# [28] = system: HT-29
# [29] = system: K562
# [30] = system: NCI-H23
# [31] = system: TK-10
# [32] = system: U-251
# [33] = system: LOX IMVI
# [34] = system: MCF7
# [35] = system: SR
# [36] = system: NCI-H522
# [37] = system: UACC-257
# [38] = system: MDA-N
# [39] = system: MDA-MB-231
# [40] = system: ACHN
# [41] = system: M14
# [42] = system: SK-MEL-5
# [43] = system: 786-0
# [44] = system: DU-145
# [45] = system: MDA-MB-435
# [46] = system: A549
# [47] = system: T47D
# [48] = system: SF-295
# [49] = system: OVCAR-3
# [50] = system: CAKI-1
# [51] = system: EKVX
# [52] = system: OVCAR-4
# [53] = system: COLO 205
# [54] = system: HCT-116
# [55] = system: SNB-19
# [56] = system: HOP-92
# [57] = system: NCI-H226
# [58] = system: SNB-75
# [59] = system: UO-31
smiles,measurement,setting,value
N#Cc1[nH]c(=O)n(-c2cccc3ccccc23)c1N,GI50,[1],> 10 µM (inactive)
same,GI50,[2],> 10 µM (inactive)
same,GI50,[3],> 10 µM (inactive)
same,GI50,[4],> 10 µM (inactive)
same,GI50,[5],4.61 µM (inactive)
same,GI50,[6],> 10 µM (inactive)
same,GI50,[7],> 10 µM (inactive)
same,GI50,[8],> 10 µM (inactive)
same,GI50,[9],> 10 µM (inactive)
same,GI50,[10],> 10 µM (inactive)
same,GI50,[11],> 10 µM (inactive)
same,GI50,[12],> 10 µM (inactive)
same,GI50,[13],> 10 µM (inactive)
same,GI50,[14],> 10 µM
same,GI50,[15],> 10 µM (inactive)
same,GI50,[16],> 10 µM (inactive)
same,GI50,[17],0.001 µM (active)
same,GI50,[18],> 10 µM (inactive)
same,GI50,[19],> 10 µM (inactive)
same,GI50,[20],> 10 µM (inactive)
same,GI50,[21],> 10 µM (inactive)
same,GI50,[22],> 10 µM (inactive)
same,GI50,[23],> 10 µM (inactive)
same,GI50,[24],> 10 µM (inactive)
same,GI50,[25],> 10 µM (inactive)
same,GI50,[26],> 10 µM (inactive)
same,GI50,[27],> 10 µM (inactive)
same,GI50,[28],> 10 µM (inactive)
same,GI50,[29],> 10 µM (inactive)
same,GI50,[30],> 10 µM (inactive)
same,GI50,[31],> 10 µM (inactive)
same,GI50,[32],> 10 µM (inactive)
same,GI50,[33],> 10 µM (inactive)
same,GI50,[34],> 10 µM (inactive)
same,GI50,[35],> 10 µM (inactive)
same,GI50,[36],> 10 µM (inactive)
same,GI50,[37],> 10 µM (inactive)
same,GI50,[38],> 10 µM (inactive)
same,GI50,[39],> 10 µM (inactive)
same,GI50,[40],> 10 µM (inactive)
same,GI50,[41],> 10 µM (inactive)
same,GI50,[42],> 10 µM (inactive)
same,GI50,[43],> 10 µM (inactive)
same,GI50,[44],> 10 µM (inactive)
same,GI50,[45],> 10 µM (inactive)
same,GI50,[46],> 10 µM (inactive)
same,GI50,[47],> 10 µM (inactive)
same,GI50,[48],> 10 µM (inactive)
same,GI50,[49],> 10 µM (inactive)
same,GI50,[50],> 10 µM (inactive)
same,GI50,[51],> 10 µM (inactive)
same,GI50,[52],> 10 µM (inactive)
same,GI50,[53],> 10 µM (inactive)
same,GI50,[54],> 10 µM (inactive)
same,GI50,[55],> 10 µM (inactive)
COC12CCCN1c1ccn(Cc3ccccc3)c(=O)c1C2=O (configuration not stated),GI50,[2],> 100 µM (inactive)
same,GI50,[3],> 100 µM (inactive)
same,GI50,[4],> 100 µM (inactive)
same,GI50,[5],> 100 µM (inactive)
same,GI50,[6],> 100 µM (inactive)
same,GI50,[7],> 100 µM (inactive)
same,GI50,[8],> 100 µM (inactive)
same,GI50,[9],> 100 µM (inactive)
same,GI50,[10],> 100 µM (inactive)
same,GI50,[11],> 100 µM (inactive)
same,GI50,[12],> 100 µM (inactive)
same,GI50,[13],> 100 µM (inactive)
same,GI50,[14],> 100 µM
same,GI50,[15],> 100 µM (inactive)
same,GI50,[56],> 100 µM (inactive)
same,GI50,[16],> 100 µM (inactive)
same,GI50,[18],> 100 µM (inactive)
same,GI50,[19],66.1 µM (inactive)
same,GI50,[57],> 100 µM (inactive)
same,GI50,[20],> 100 µM (inactive)
same,GI50,[21],28.7 µM (inactive)
same,GI50,[22],> 100 µM (inactive)
same,GI50,[23],> 100 µM (inactive)
same,GI50,[24],> 100 µM (inactive)
same,GI50,[25],82 µM (inactive)
same,GI50,[26],> 100 µM (inactive)
same,GI50,[27],> 100 µM (inactive)
same,GI50,[28],> 100 µM (inactive)
same,GI50,[29],> 100 µM (inactive)
same,GI50,[30],> 100 µM (inactive)
same,GI50,[31],> 100 µM (inactive)
same,GI50,[32],> 100 µM (inactive)
same,GI50,[58],> 100 µM (inactive)
same,GI50,[33],> 100 µM (inactive)
same,GI50,[34],> 100 µM (inactive)
same,GI50,[35],> 100 µM (inactive)
same,GI50,[36],> 100 µM (inactive)
same,GI50,[37],> 100 µM (inactive)
same,GI50,[38],> 100 µM (inactive)
same,GI50,[39],> 100 µM (inactive)
same,GI50,[40],> 100 µM (inactive)
same,GI50,[41],> 100 µM (inactive)
same,GI50,[42],> 100 µM (inactive)
same,GI50,[43],> 100 µM (inactive)
same,GI50,[44],> 100 µM (inactive)
same,GI50,[45],> 100 µM (inactive)
same,GI50,[46],> 100 µM (inactive)
same,GI50,[47],> 100 µM (inactive)
same,GI50,[48],> 100 µM (inactive)
same,GI50,[49],> 100 µM (inactive)
same,GI50,[50],> 100 µM (inactive)
same,GI50,[59],> 100 µM (inactive)
same,GI50,[51],> 100 µM (inactive)
same,GI50,[52],> 100 µM (inactive)
same,GI50,[53],> 100 µM (inactive)
same,GI50,[54],> 100 µM (inactive)
same,GI50,[55],> 100 µM (inactive)
